pIC50: −log10 of the molar value.

Experiment [1] deals with human A2b adenosine receptor (Homo sapiens (Human), UniProt P29275). The experiment in a line: A2b radioligand filtration binding assay. The conditions noted are these: for pIC50: membranes from HEK293 cells expressing human A2b receptor. On the procedure: Measurement of A2b Binding Affinity
The reported affinity of the compounds of the invention for the human A2b adenosine receptor was determined experimentally using a radioligand filtration binding assay. This assay measures the amount of binding of a tritiated proprietary A2b receptor antagonist, in the presence and absence of a compound of the invention, to membranes made from HEK293 cells recombinantly expressing the human A2b adenosine receptor (Perkin Elmer, Cat. No. ES-013-C).
148 μL (135 μg/mL) membranes and 2 μL test compounds were transferred to individual wells of a 96-well polypropylene assay plate and incubated for 15 to 30 minutes at room temperature with agitation. Tritiated radioligand was diluted to a concentration of 14 nM in assay buffer (phosphate buffered saline without Magnesium and Calcium, pH 7.4; GE Healthcare Life Sciences, Cat. No. SH30256.01) and then 50 μL of the solution were transferred to each well of the assay plate. To define total and non-specific binding, wells containing 1% DMSO and 20 μM N-ethylcarboxamidoadenosine (Tocris Bioscience, Cat. No. 1691) respectively, were also included. The wells of the assay plate were incubated at room temperature for 60 minutes with agitation, then filtered using a FilterMate Harvester® (Perkin Elmer) or similar equipment through a UniFilter-96® PEI coated plate (Perkin Elmer Cat. No. 6005274 or 6005277). Filtering was achieved by aspirating the contents of the assay plate for 5 seconds, then washing and aspirating the contents three times with ice-cooled wash buffer (assay buffer supplemented with 0.0025% Brij58) and allowing the vacuum manifold to dry the plate for 30 seconds. The filter plate was incubated for at least 1 hour at 55° C. and allowed to dry. The bottom of the filter plate was then sealed with backing tape. 40 μL Ultima Gold™ (Perkin Elmer, Cat. No. 6013329) was added to each well of the filter plate and the top of the plate was sealed with TopSeal-A PLUS® clear plate seal (Perkin Elmer, Cat. No. 6050185). The plates were then incubated for at least 20 minutes, and then the amount of radioactivity remaining in each well was determined using a TopCount® (Perkin Elmer) scintillation counter. After normalization to total and non-specific binding, the percent effect at each compound concentration was calculated. The plot of percent effect versus the log of compound concentration was analyzed electronically using a 4-parameter logistic fit based on the Levenberg-Marquardt algorithm to generate IC50 values.

The target of experiment [2] is human A2a adenosine receptor (Homo sapiens (Human), UniProt P29274). The experiment in a line: A2a receptor affinity radioligand binding assay ([3H] SCH58261). The conditions noted are these: membranes from HEK293 or CHO cells expressing human A2a receptor. The procedure: The A2a receptor affinity binding assay measured the amount of binding of a tritiated ligand with high affinity for the A2a adenosine receptor to membranes made from HEK293 or CHO cells recombinantly expressing the human A2a adenosine receptor, in the presence of varying concentrations of a compound of the invention.
Measurement of A2a Binding Affinity Using Radioligand Binding
148 μL (5 μg/mL) membranes (Perkin Elmer, Cat. No. RBHA2aM400UA) and 2 μL compounds of the invention to be tested (test compound) were transferred to individual wells of a 96-well polypropylene assay plate and incubated for 15 to 30 minutes at room temperature. [^3H] SCH58261 ((7-(2-phenylethyl)-5-amino-2-(2-furyl)-pyrazolo-[4,3-e]-1,2,4-triazolo[1,5-c]pyrimidine)) was diluted in assay buffer (50 mM Tris pH 7.4, 10 mM MgCl2, 0.005% Tween20) to a concentration of 4 nM and 50 μL transferred to each well of the assay plate. To define total and non-specific binding, wells containing 1% DMSO and 1 μM ZM241385 (Tocris Bioscience, Cat. No. 1036) respectively, were also included. The assay plate was incubated at room temperature for 60 minutes with agitation. Using a FilterMate Harvester® (Perkin Elmer), the contents of the assay plate were filtered through a UniFilter-96® PEI coated plate (Perkin Elmer Cat. No. 6005274 or 6005277). Filtering was achieved by aspirating the contents of the assay plate for 5 seconds, then washing and aspirating the contents three times with ice-cooled wash buffer (50 mM Tris-HCl pH 7.4, 150 mM NaCl) and allowing the vacuum manifold to dry the plate for 30 seconds. The filter plate was incubated for at least 1 hour at 55° C., and allowed to dry. The bottom of the filter plate was sealed with backing tape. 40 μL Ultima Gold™ (Perkin Elmer, Cat. No. 6013329) was added to each well of the filter plate and the top of the plate was sealed with TopSeal-A PLUS® clear plate seal (Perkin Elmer, Cat. No. 6050185). The plate was incubated for at least 20 minutes, and then the amount of radioactivity remaining in each well was determined using a TopCount® (Perkin Elmer) scintillation counter. After normalization to total and non-specific binding, the percent effect at each compound concentration was calculated. The plot of percent effect versus the log of compound concentration was analyzed electronically using a 4-parameter logistic fit based on the Levenberg-Marquardt algorithm to generate IC50 values.

Chain of human A2a adenosine receptor (P29274 whole entry): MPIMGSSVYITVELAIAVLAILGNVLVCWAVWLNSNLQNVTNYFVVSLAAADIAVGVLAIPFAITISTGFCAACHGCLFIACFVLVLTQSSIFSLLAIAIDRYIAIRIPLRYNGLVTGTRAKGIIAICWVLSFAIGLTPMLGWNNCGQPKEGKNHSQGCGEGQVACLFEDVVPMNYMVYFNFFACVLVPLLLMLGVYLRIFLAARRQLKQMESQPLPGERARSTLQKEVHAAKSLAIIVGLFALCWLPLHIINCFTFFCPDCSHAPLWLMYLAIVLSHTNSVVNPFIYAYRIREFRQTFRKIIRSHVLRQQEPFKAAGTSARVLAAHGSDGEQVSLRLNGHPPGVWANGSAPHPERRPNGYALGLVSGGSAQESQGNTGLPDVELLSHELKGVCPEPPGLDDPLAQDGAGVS
Chain of human A2b adenosine receptor (P29275 whole entry): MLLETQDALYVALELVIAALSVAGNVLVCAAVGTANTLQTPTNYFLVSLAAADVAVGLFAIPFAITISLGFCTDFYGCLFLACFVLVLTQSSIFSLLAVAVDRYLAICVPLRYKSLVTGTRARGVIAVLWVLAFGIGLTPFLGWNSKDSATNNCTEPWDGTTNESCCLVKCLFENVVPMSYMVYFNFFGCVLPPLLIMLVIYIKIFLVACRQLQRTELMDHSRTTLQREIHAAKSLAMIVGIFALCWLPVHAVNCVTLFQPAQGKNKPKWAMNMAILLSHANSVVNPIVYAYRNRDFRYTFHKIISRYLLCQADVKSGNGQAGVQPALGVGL

In general, pIC50 refers to the IC50 on a negative log10 scale, so that one unit is a factor of ten. A low value points to a high IC50. Regarding `COc1cc2nc(N)n3nc(C4CCC(C)N(c5cnn(C6CCOCC6)c5C)C4)nc3c2cc1F` (single isomer, unassigned) [Example 45, 9-fluoro-8-methoxy-2-((3R,6S or 3S,6R)-6-methyl-1-(5-methyl-1-(tetrahydro-2H-pyran-4-yl)-1H-pyrazol-4-yl)piperidin-3-yl)-[1,2,4]triazolo[1,5-c]quinazolin-5-amine], the figures for the pIC50 in experiment [1] and in experiment [2] were 6.82 and 8.74, respectively.

Consider `COc1cc2nc(N)n3nc([C@@H]4CCCN(c5cn(C)nn5)C4)nc3c2cc1F` [Example 6, (R)-9-fluoro-8-methoxy-2-(1-(1-methyl-1H-1,2,3-triazol-4-yl)piperidin-3-yl)-[1,2,4]triazolo[1,5-c]quinazolin-5-amine], for which the pIC50 in experiment [1] is 7.07; in experiment [2] it was 8.70.

For the compound `COc1cc(F)cc2c1nc(N)n1nc([C@H]3C[C@@H](F)CN(c4cnn(CC(C)(C)O)c4)C3)nc21` (single isomer, unassigned) [Example 69, 1-(4-((3S,5R or 3R,5S)-3-(5-amino-9-fluoro-7-methoxy-[1,2,4]triazolo[1,5-c]quinazolin-2-yl)-5-fluoropiperidin-1-yl)-1H-pyrazol-1-yl)-2-methylpropan-2-ol], the pIC50 in experiment [1] was 6.25; in experiment [2], 8.59.

`COc1cc2nc(N)n3nc([C@@H]4CCCN(c5cn(CS(C)(=O)=O)nc5C(F)F)C4)nc3c2cc1F` [Example 132, (R)-2-(1-(3-(difluoromethyl)-1-((methylsulfonyl)methyl)-pyrazol-4-yl)piperidin-3-yl)-9-fluoro-8-methoxy-[1,2,4]triazolo[1,5-c]quinazolin-5-amine]: the pIC50 in experiment [1] was 6.62; in experiment [2], 8.17.

On to `COc1cc2nc(N)n3nc([C@@H]4CCCN(c5nc(C)n(CC(C)(C)O)n5)C4)nc3c2cc1F` [Example 27, (R)-1-(3-(3-(5-amino-9-fluoro-8-methoxy-[1,2,4]triazolo[1,5-c]quinazolin-2-yl)piperidin-1-yl)-5-methyl-1H-1,2,4-triazol-1-yl)-2-methylpropan-2-ol], for which the pIC50 in experiment [1] is 6.07; in experiment [2], 8.74.

With `COc1ccc(N2CCC[C@@H](c3nc4c5cc(F)c(OC)cc5nc(N)n4n3)C2)cn1` [Example 26, (R)-9-fluoro-8-methoxy-2-(1-(6-methoxypyridin-3-yl)piperidin-3-yl)-[1,2,4]triazolo[1,5-c]quinazolin-5-amine], the pIC50 in experiment [1] is 7.31; in experiment [2], 8.41.

Regarding `COc1cc2nc(N)n3nc([C@@H]4CC[C@H](C)N(c5cnn(C6CCC(C)(O)CC6)c5)C4)nc3c2cc1F` (single isomer, unassigned) [Example 97, rac-(1r,4r or 1r,4s)-4-(4-((2S,5R or 2R,5S)-5-(5-amino-9-fluoro-8-methoxy-[1,2,4]triazolo[1,5-c]quinazolin-2-yl)-2-methylpiperidin-1-yl)-1H-pyrazol-1-yl)-1-methylcyclohexan-1-ol], the results for the pIC50 in experiment [1] and in experiment [2] were 7.48 and 9.22, respectively.

In the case of `COc1cc2nc(N)n3nc([C@@H]4CCCN(c5cnn(CS(C)(=O)=O)c5)C4)nc3c2cc1F` [Example 131, (R)-9-fluoro-8-methoxy-2-(1-(1-((methylsulfonyl)methyl)-1H-pyrazol-4-yl)piperidin-3-yl)-[1,2,4]triazolo[1,5-c]quinazolin-5-amine], the pIC50 in experiment [1] was 7.18; in experiment [2], 7.93.

In the case of `COc1cc(F)cc2c1nc(N)n1nc([C@@H]3C[C@H](F)CN(c4cnn(CC(C)(C)O)c4)C3)nc21` (single isomer, unassigned) [Example 68, 1-(4-((3R,5S or 3S,5R)-3-(5-amino-9-fluoro-7-methoxy-[1,2,4]triazolo[1,5-c]quinazolin-2-yl)-5-fluoropiperidin-1-yl)-1H-pyrazol-1-yl)-2-methylpropan-2-ol], the “A2B binding % Inh. @ 10000 nM” value in experiment [1] (@ 10000 nM) stood at 31% Inh. This compound had a pIC50 in experiment [2] of 6.74.

On to `Cn1cc(N2CCC[C@@H](c3nc4c5cc(Cl)cc(Cl)c5nc(N)n4n3)C2)cn1` [Example 113, (R)-7,9-dichloro-2-(1-(1-methyl-1H-pyrazol-4-yl)piperidin-3-yl)-[1,2,4]triazolo[1,5-c]quinazolin-5-amine], for which the pIC50 in experiment [1] was 6.33; in experiment [2], 7.24.

For the compound `COc1cc2nc(N)n3nc(C4CC(F)CN(c5cnn(CC(C)(C)O)c5)C4)nc3c2cc1F` (single isomer, unassigned) [Example 55, 1-(4-((3R,5S or 3S,5R)-3-(5-amino-9-fluoro-8-methoxy-[1,2,4]triazolo[1,5-c]quinazolin-2-yl)-5-fluoropiperidin-1-yl)-1H-pyrazol-1-yl)-2-methylpropan-2-ol], the results for the negative logarithm of the IC50 (pIC50) in experiment [1] and in experiment [2] were 6.30 and 7.97, respectively.

With `COc1cc(F)cc2c1nc(N)n1nc(C3CC(F)CN(c4cnn(CC5(O)CCC5)c4)C3)nc21` (single isomer, unassigned) [Example 79, 1-(4-((3S,5S or 3R,5R)-3-(5-amino-9-fluoro-7-methoxy-[1,2,4]triazolo[1,5-c]quinazolin-2-yl)-5-fluoropiperidin-1-yl)-1H-pyrazol-1-yl)methyl)cyclobutan-1-ol], the negative logarithm of the IC50 (pIC50) in experiment [1] is 5.50; in experiment [2] it was 7.80.

With `COc1cc2nc(N)n3nc([C@@H]4C[C@@H](F)CN(c5cnn(CC(C)(C)O)c5)C4)nc3c2cc1F` (single isomer, unassigned) [Example 80, 1-(4-((3R,5R or 3S,5S)-3-(5-amino-9-fluoro-8-methoxy-[1,2,4]triazolo[1,5-c]quinazolin-2-yl)-5-fluoropiperidin-1-yl)-1H-pyrazol-1-yl)-2-methylpropan-2-ol], the values for the negative-log IC50 (pIC50) in experiment [1] and in experiment [2] were 6.39 and 7.94, respectively.

For `COc1cc2nc(N)n3nc(C4CCC(C)N(c5cnn(C(C)(C)CO)c5)C4)nc3c2cc1F` (single isomer, unassigned) [Example 128], the results for the negative-log IC50 (pIC50) in experiment [1] and in experiment [2] were 8.62 and 9.52, respectively.

With `COc1cc2nc(N)n3nc(C4CCC(C)N(c5cnn(CC(C)(C)O)c5C)C4)nc3c2cc1F` (single isomer, unassigned) [Example 41, 1-(4-((2S,5R or 2R,5S)-5-(5-amino-9-fluoro-8-methoxy-[1,2,4]triazolo[1,5-c]quinazolin-2-yl)-2-methylpiperidin-1-yl)-5-methyl-1H-pyrazol-1-yl)-2-methylpropan-2-ol], the negative-log IC50 (pIC50) in experiment [1] was 7.37; in experiment [2] it was 8.92.

In the case of `COc1cc(F)cc2c1nc(N)n1nc([C@@H]3CC[C@@H](C)N(c4cn(CC(C)(C)O)nc4C)C3)nc21` (single isomer, unassigned) [Example 114, 1-(4-((2R or 2S,5R or 5S)-5-(5-amino-9-fluoro-7-methoxy-[1,2,4]triazolo[1,5-c]quinazolin-2-yl)-2-methylpiperidin-1-yl)-3-methyl-1H-pyrazol-1-yl)-2-methylpropan-2-ol], the negative-log IC50 (pIC50) in experiment [1] was 5.54; in experiment [2], 7.30.
